# Test results taken from article PMC6796659, “Topoisomerase IB poisons induce histone H2A phosphorylation as a response to DNA damage in Leishmania infantum” (International Journal for Parasitology: Drugs and Drug …, 2019).
# Read-outs that look alike come from different tables or passages of the source.
# Columns and labels:
# [1] = Cytotoxicity on uninfected mouse splenocytes (Alamar Blue); assay type: cell-based; conditions: BALB/c, freshly isolated uninfected mouse splenocytes, non-infected mouse splenocytes, read-out: CC50 (μM) Murine Splenocytes
# Protocol: Finally, the cytotoxicity of the compounds was assessed on freshly-isolated mouse splenocytes, which were obtained from uninfected BALB/c mice according to the protocol previously described. Viability of uninfected splenocytes was used to determine the cytotoxic concentration 50 (CC50) by means of the Alamar Blue staining method, according to manufacturer's recommendations (Invitrogen). Selectivity index (SI) for each compound was calculated as the ratio between the CC50 value obtained for splenic cells and the EC50 value for amastigotes.
# [2] = tested on: Leishmania topoisomerase IB (LTopIB); experiment: Relaxation of supercoiled pSK DNA by recombinant LTopIB; assay type: biochemical; parameters: key: +++: inhibition at 1 μM; ++: inhibition at 10 μM; +: inhibition at 100 μM; 0: no inhibition
# Protocol: (§1) Expression and purification of LTopIB and hTopIB were carried out according to a previously standardized protocol ([Villa et al., 2003]). The effect of indenoisoquinolines (compounds 1 to 20) on recombinant LTopIB and hTopIB was determined by measuring the relaxation of negatively supercoiled pBluescript-SK DNA plasmid (pSK). Briefly, in a total volume of 20 μL, 100 U of recombinant TopIB were incubated with 0.5 μg of pSK DNA in 10 mM Tris-HCl buffer (pH 7.5), 5 mM MgCl2, 5 mM dithiothreitol (DTT), 0.1 mM EDTA, […] bovine serum albumin, and 150 mM KCl. Different concentrations of indenoisoquinolines were also added. Following a 4-min incubation period at 25 °C, reactions were stopped with 1% (w/v) SDS, and incubated for one extra hour at 37 °C in the presence of 1 mg/mL proteinase K. Subsequently, samples were extracted with 1 vol phenol-chloroform mixture and were loaded on a 1% agarose gel containing 0.1 μg/mL ethidium bromide. The gel was run for 16 h at 4 V/cm, and the images were acquired using a G-Box system (Syngene, United Kingdom).
# [3] = tested on: iRFP L. infantum amastigotes infecting mouse splenocytes; experiment: Antileishmanial activity on iRFP L. infantum amastigotes in ex vivo murine splenic explants; assay type: cell-based, Leishmania infantum; conditions: for SI (Selectivity Index): CC50 (splenocytes)/EC50 (amastigotes); for EC50: Leishmania infantum, Splenocyte, 72 h, read-out: EC50 (μM) L. infantum amastigotes
# Protocol: Five-week BALB/c female mice infected intraperitoneally with 1.5 × 10^9 metacyclic iRFP L. infantum promastigotes were sacrificed to eviscerate their spleens, which were processed to obtain a suspension of primary splenocytes. Briefly, freshly dissected spleens were washed with cold phosphate-buffered saline (PBS), cut in small pieces and incubated for 20 min with 5 mL of 2 mg/mL collagenase D (Sigma) prepared in buffer (10 mM HEPES, pH 7.4, 150 mM NaCl, 5 mM KCl, 1 mM MgCl2 and 1.8 mM CaCl2). Then, the cell suspension was passed through a 100 μm cell strainer, harvested by centrifugation (500×g for 7 min at 4 °C), washed twice with PBS, and resuspended in RPMI medium (Gibco) supplemented with 10 mM HEPES, 1 mM sodium pyruvate, 1xRPMI 1640 vitamin mix, 10% (v/v) FBS, 50 U/mL penicillin and 50 μg/mL streptomycin. The cell suspension was cultured in 384-well optical bottom black plates (Thermo Scientific) at 37 °C under 5% CO2 atmosphere.
# (§2) The antileishmanial activity of the compounds was tested both in promastigotes and in amastigotes infecting mouse splenocytes. For this purpose, 384-well optical bottom black plates (Thermo Scientific) were seeded either with free-living iRFP L. infantum promastigotes or with splenic explants infected with iRFP L. infantum amastigotes, which were incubated at 26 °C or 37 °C, respectively. The viability of both iRFP L. infantum stages was measured by recording the fluorescence emitted by viable cells at 708 nm in an Odyssey (Li-Cor) infrared imaging system after a 72-h period of incubation with different concentrations of the compounds. Dose-response curves were obtained by plotting the infrared fluorescence emission of viable parasites vs. different concentrations of testing compounds and were fitted by nonlinear analysis using the Sigma-Plot 10.0 statistical package. The reduction of infrared emission with respect to the negative control was used to determine the 50% effective concentration to kill the parasites (EC50). Both controls and treated groups were tested with DMSO (drug vehicle) concentrations below 0.1%. All compounds and controls were assayed in triplicate.
# human Top IB (hTopIB) = molecular target: T1, human Top IB (hTopIB) (Homo sapiens, UniProt P11387); experiment: Relaxation of supercoiled pSK DNA by recombinant hTopIB; assay type: biochemical
# T1 construct: made in house
# T1 sequence (P11387 1-765): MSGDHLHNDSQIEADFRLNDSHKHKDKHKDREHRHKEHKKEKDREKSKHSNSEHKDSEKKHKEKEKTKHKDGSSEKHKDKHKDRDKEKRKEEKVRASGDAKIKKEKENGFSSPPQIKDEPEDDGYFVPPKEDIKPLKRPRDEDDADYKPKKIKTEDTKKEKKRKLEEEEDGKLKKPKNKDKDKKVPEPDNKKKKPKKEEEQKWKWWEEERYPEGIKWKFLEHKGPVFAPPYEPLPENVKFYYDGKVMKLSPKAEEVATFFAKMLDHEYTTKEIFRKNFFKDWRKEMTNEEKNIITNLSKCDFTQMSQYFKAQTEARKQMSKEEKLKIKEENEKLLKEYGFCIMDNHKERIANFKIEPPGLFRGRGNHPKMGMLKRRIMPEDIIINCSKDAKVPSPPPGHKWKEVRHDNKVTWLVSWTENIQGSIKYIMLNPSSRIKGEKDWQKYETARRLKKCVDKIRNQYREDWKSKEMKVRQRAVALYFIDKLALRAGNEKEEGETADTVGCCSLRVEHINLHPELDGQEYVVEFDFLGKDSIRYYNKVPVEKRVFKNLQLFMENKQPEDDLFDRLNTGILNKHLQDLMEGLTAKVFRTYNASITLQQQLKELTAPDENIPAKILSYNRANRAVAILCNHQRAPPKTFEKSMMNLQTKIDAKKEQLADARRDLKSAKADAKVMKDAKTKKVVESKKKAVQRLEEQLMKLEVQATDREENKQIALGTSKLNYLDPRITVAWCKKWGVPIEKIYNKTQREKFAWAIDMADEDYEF
# Protocol: as §1
# [4] = tested on: iRFP L. infantum promastigotes; experiment: Antileishmanial activity on free-living iRFP L. infantum promastigotes (infrared fluorescence viability); assay type: cell-based; conditions: Leishmania infantum, 72 h, 26 °C
# Protocol: Histone phosphorylation assays were performed in promastigotes of L. infantum BCN 150 strain, whereas the antiparasitic activity of the compounds was assessed on the transgenic strain that constitutively expresses the irfp gene encoding the infrared iRFP protein (iRFP L. infantum strain) ([Calvo-Álvarez et al., 2015]), which is derived from L. infantum BCN 150. Both strains were grown at 26 °C in M-199 medium (Gibco) supplemented with 25 mM HEPES pH 7.2, 0.1 mM adenine, 0.0005% (w/v) hemin, 2 μg/mL biopterin, 0.0001% (w/v) biotin, 10% (v/v) heat-inactivated fetal bovine serum (FBS) and an antibiotic cocktail comprising 50 U/mL penicillin and 50 μg/mL streptomycin.
# as §2
# [5] = tested on: L. infantum promastigotes; experiment: Cell cycle analysis by flow cytometry (propidium iodide); assay type: cell-based, Leishmania infantum; conditions: 1 μM single dose, 0, 8, 24, 48 h
# Protocol: One million promastigotes untreated or treated with 1 μM of different indenoisoquinolines were harvested by centrifugation after 0, 8, 24 and 48 h exposure. Promastigotes were washed twice with PBS and fixed by 1 h incubation with 70% methanol at 4 °C. After incubation, cells were centrifuged, washed again with PBS and resuspended in 0.5 mL of citrate buffer (45 mM MgCl2, 20 mM MOPS, 30 mM sodium citrate, 0.1% Triton X-100, pH = 7). Finally, samples with RNAase (50 μg/mL) and propidium iodide ([…]) were incubated at 37 °C during 30 min and analyzed at 589 nm by flow cytometry (Cyan ADP Dako).
# [6] = splenic-infecting iRFP L. infantum amastigotes, 37 °C
SMILES,CC50 [1] [µM],LTopIB inhibition ([2]; Table 1),SI (Selectivity Index) [3],"EC50 [3, 6] [µM]",hTopIB inhibition (human Top IB (hTopIB); Table 1),EC50 [4] [µM],LTopIB inhibition ([2]; Table 2),hTopIB inhibition (human Top IB (hTopIB); Table 2),LTopIB inhibition ([2]; Table 3),hTopIB inhibition (human Top IB (hTopIB); Table 3),effect on cell cycle of promastigotes [5],EC50 [3] [µM]
COC(=O)c1ccc2c(c1)C(=O)c1c-2n(CCCN)c(=O)c2cc([N+](=O)[O-])ccc12 [Compound 4],0.59 ± 0.02,++ (inhibition at 10 μM),4.2,0.14 ± 0.08,+++ (inhibition at 1 μM),1.1 ± 0.07,–,–,–,–,–,–
O=C1c2ccccc2-c2c1c1ccc([N+](=O)[O-])cc1c(=O)n2CCCn1ccnc1 [Compound 11],0.71 ± 0.01,–,11,0.06 ± 0.02,–,0.45 ± 0.5,+++ (inhibition at 1 μM),+++ (inhibition at 1 μM),–,–,–,–
COc1cnc2c(c1)C(=O)c1c-2n(CCCN2CCOCC2)c(=O)c2ccc(OC)cc12 [Compound 17],7.84 ± 0.77,–,29.0,0.27 ± 0.08,–,2.92 ± 0.44,–,–,+++ (inhibition at 1 μM),+++ (inhibition at 1 μM),arrested the cell cycle of promastigotes in S phase,–
COc1ccc2c(c1)C(=O)c1c-2n(CCCN2CCOCC2)c(=O)c2cc([N+](=O)[O-])ccc12 [Compound 16],0.59 ± 0.08,–,–,1.86 ± 0.29,–,> 10,–,–,0,+++ (inhibition at 1 μM),–,–
"C[C@@H]1[C@H](O)[C@@H](C)/C=C/C=C/C=C/C=C/C=C/C=C/C=C/[C@H](O[C@@H]2O[C@H](C)[C@@H](O)[C@H](N)[C@@H]2O)C[C@@H]2O[C@](O)(C[C@@H](O)C[C@@H](O)[C@H](O)CC[C@@H](O)C[C@@H](O)CC(=O)O[C@H]1C)C[C@H](O)[C@H]2C(=O)O [AMB, amphotericin B, reference compound]",> 20,–,>62,0.3,–,0.8 ± 0.1,–,–,–,–,–,–
NCCCn1c2c(c3ccc([N+](=O)[O-])cc3c1=O)C(=O)c1cc3c(cc1-2)OCO3 [Compound 8],0.05 ± 0.01,+++ (inhibition at 1 μM),2.8,0.02 ± 0.05,+++ (inhibition at 1 μM),0.06 ± 0.01,–,–,–,–,–,–
O=C1c2ccccc2-c2c1c1ccc([N+](=O)[O-])cc1c(=O)n2CCCN1CCOCC1 [Compound 15],18 ± 5.3,–,30,0.6 ± 0.42,–,> 10,–,–,0,+++ (inhibition at 1 μM),–,–
CCOc1ccc2c(c1)C(=O)c1c-2n(CCCN)c(=O)c2cc([N+](=O)[O-])ccc12 [Compound 5],0.35 ± 0.03,++ (inhibition at 10 μM),4.4,0.08,+++ (inhibition at 1 μM),0.54 ± 0.05,–,–,–,–,–,–
COc1cc2c3c(n(CCCn4ccnc4)c(=O)c2cc1OC)-c1cc2c(cc1C3=O)OCO2 [Compound 14],0.03,–,3.0,0.01,–,1.85 ± 0.18,0,+++ (inhibition at 1 μM),–,–,–,–
COc1ccc2c(c1)C(=O)c1c-2n(CCCN)c(=O)c2cc([N+](=O)[O-])ccc12 [Compound 3],0.41 ± 0.19,++ (inhibition at 10 μM),–,> 10,+++ (inhibition at 1 μM),0.2 ± 0.01,–,–,–,–,arrested the cell cycle of promastigotes in S phase,–
NCCCCn1c2c(c3ccccc3c1=O)C(=O)c1ccccc1-2 [Compound 9],2.11 ± 0.22,+++ (inhibition at 1 μM),–,–,+++ (inhibition at 1 μM),0.43 ± 0.08,–,–,–,–,–,0.73 ± 0.01
NCCCCCn1c2c(c3ccccc3c1=O)C(=O)c1ccccc1-2 [Compound 10],1.35 ± 0.19,+++ (inhibition at 1 μM),–,2.29 ± 1.05,+++ (inhibition at 1 μM),2.4 ± 1.03,–,–,–,–,–,–
O=C1c2cccnc2-c2c1c1ccccc1c(=O)n2CCCn1ccnc1 [Compound 13],2.4 ± 0.35,–,4.1,0.59 ± 0.6,–,2.89 ± 0.14,+ (inhibition at 100 μM),++ (inhibition at 10 μM),–,–,–,–
NCCCn1c2c(c3ccc([N+](=O)[O-])cc3c1=O)C(=O)c1cc(Br)ccc1-2 [Compound 6],0.81 ± 0.09,+++ (inhibition at 1 μM),6.2,0.13 ± 0.03,+++ (inhibition at 1 μM),0.52 ± 0.03,–,–,–,–,–,–
NCCn1c2c(c3ccccc3c1=O)C(=O)c1ccccc1-2 [Compound 1],1.1 ± 0.06,+++ (inhibition at 1 μM),24.4,0.04 ± 0.09,++ (inhibition at 10 μM),0.94 ± 0.03,–,–,–,–,–,–
